Measured values published in ChEMBL document CHEMBL5104093, “A comprehensive review on β-lapachone: Mechanisms, structural modifications, and therapeutic potentials” (Eur J Med Chem, 2021).
Converted amounts (≈) assume the structure as drawn.

These molecules were tested on Mycobacterium tuberculosis (assay: Antimycobacterial activity against rifampicin resistant Mycobacterium tuberculosis ATCC 35338 assessed as bacterial growth inhibition incubated for 7 days by resazurin dye based microtiter assay). Conditions: ATCC 35338, 168 h, time 7 day.
Format: functional
With `C=CCC1Cc2c(c3ccccc3c3nc4ccccc4nc23)OC1(C)C` (stereo unspecified) the MIC was 0.78 µg/mL (≈ 2.2 µM).
`CC1(C)CCc2c(c3ccccc3c3nc(-c4cccc(Br)c4)[nH]c23)O1` gave an MIC of 1.56 µg/mL (≈ 3.83 µM).
`CC1(C)CCc2c(c3ccccc3c3nc(-c4cccc(F)c4)[nH]c23)O1` showed an MIC of 1.56 µg/mL (≈ 4.5 µM).
`CC1(C)CCc2c(c3ccccc3c3nc(-c4ccc([N+](=O)[O-])cc4)[nH]c23)O1` was tested, and the MIC was > 100 µg/mL.
Work on `COc1ccccc1-c1nc2c([nH]1)c1c(c3ccccc32)OC(C)(C)CC1` yielded an MIC of 1.56 µg/mL (≈ 4.35 µM).
`Cc1ccccc1-c1nc2c([nH]1)c1c(c3ccccc32)OC(C)(C)CC1` gave an MIC of 1.56 µg/mL (≈ 4.56 µM).
`CC1(C)CCc2c(c3ccccc3c3nc(-c4cccc(C(F)(F)F)c4)[nH]c23)O1` gave an MIC of 1.56 µg/mL (≈ 3.94 µM).
`Cc1ccc(-c2nc3c([nH]2)c2c(c4ccccc43)OC(C)(C)CC2)cc1` was tested, and the MIC was 6.25 µg/mL (≈ 18.3 µM).
In the case of `CC1CCC2C(C1)c1c(c3ccccc3c3nc4ccccc4nc13)OC2(C)C` (stereo unspecified), the MIC was < 6.25 µg/mL.
`CC1(C)Oc2c(c3nc4ccccc4nc3c3ccccc23)C=C1Br` was tested, and the MIC was < 6.25 µg/mL.

These molecules were tested on Mycobacterium tuberculosis (assay: Antimycobacterial activity against rifampicin resistant Mycobacterium tuberculosis ATCC 35822 assessed as bacterial growth inhibition incubated for 7 days by resazurin dye based microtiter assay). Conditions: ATCC 35822, 168 h, time 7 day.
Format: functional
In the case of `CC1(C)CCc2c(c3ccccc3c3nc(-c4ccc([N+](=O)[O-])cc4)[nH]c23)O1`, the MIC was 1.56 µg/mL (≈ 4.18 µM).
